As a reminder, the Kd is a measure of binding affinity in units of concentration.

The target of assay [1] is T1, CmlI (Streptomyces venezuelae, UniProt F2RB83). As to the kind of experiment: stopped-flow at […] nm, hyperbolic fit of reciprocal relaxation times. It is filed as binding.
Assay [2] has as its target T1, CmlI. The description is as above. It is filed as binding. This is another data set of the same source.

Read-outs that look alike come from different tables or passages of the source.

T1 sequence (F2RB83 whole entry): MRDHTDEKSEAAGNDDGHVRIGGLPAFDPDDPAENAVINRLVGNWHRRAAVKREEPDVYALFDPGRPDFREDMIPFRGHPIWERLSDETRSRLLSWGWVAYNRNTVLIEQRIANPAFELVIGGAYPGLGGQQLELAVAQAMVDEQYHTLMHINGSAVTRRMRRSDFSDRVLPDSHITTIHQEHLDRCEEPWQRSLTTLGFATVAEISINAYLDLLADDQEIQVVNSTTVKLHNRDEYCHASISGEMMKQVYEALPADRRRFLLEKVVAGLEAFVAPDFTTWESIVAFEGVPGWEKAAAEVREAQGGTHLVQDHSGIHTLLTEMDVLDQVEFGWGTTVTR

In assay [1], `Nc1ccc([C@@H](O)[C@@H](CO)NC(=O)C(Cl)Cl)cc1` [NH2-CAM, D-threo-1-(4-aminophenyl)-2-dichloroacetylamino-1,3-propanediol] registered a Kd of 8.5 ± 1.5 mM.
The compound `O=C(N[C@H](CO)[C@H](O)c1ccc(NO)cc1)C(Cl)Cl` [NH(OH)-CAM] came in with a dissociation constant Kd in assay [2] of 1.1 ± 0.05 mM.
With `O=Nc1ccc([C@@H](O)[C@@H](CO)NC(=O)C(Cl)Cl)cc1` [NO-CAM], binding in assay [1] was put at a Kd of 8.6 ± 1 mM.

For the origin of these results see article PMC5605456 (Biochemistry, 2017).
